Assays:
Type in all cases: toxicity, cell-based
HEK-293T = test: Incucyte cell viability with HEK293T; conditions: human, 10 µM, compound concentration 10 uM
Fibroblast = test: Incucyte cell viability with human fibroblast; conditions: 10 µM, compound concentration 10 uM
U2OS = test: Incucyte cell viability with U2OS; conditions: human, 10 µM, compound concentration 10 uM
Note: unitless GR value; below 1 slowed growth and below 0 cell loss.

CN1CCN([C@H]2CC[C@@H](n3cc(-c4ccc(Oc5ccccc5)cc4)c4c(N)ncnc43)CC2)CC1
Growth Rate (HEK-293T; 6 h, replicate number 1): -0.98
Growth Rate (HEK-293T; 12 h, replicate number 1): -0.89
Growth Rate (HEK-293T; 12 h, replicate number 2): -0.8
Growth Rate (HEK-293T; 18 h, replicate number 1): -0.69
Growth Rate (HEK-293T; 18 h, replicate number 2): -0.6
Growth Rate (HEK-293T; 24 h, replicate number 1): -0.55
Growth Rate (HEK-293T; 24 h, replicate number 2): -0.44
Growth Rate (Fibroblast; 6 h, replicate number 1): -1
Growth Rate (Fibroblast; 6 h, replicate number 2): -0.98
Growth Rate (Fibroblast; 12 h, replicate number 2): -0.72
Growth Rate (Fibroblast; 18 h, replicate number 2): -0.51
Growth Rate (Fibroblast; 24 h, replicate number 1): 0.42
Growth Rate (Fibroblast; 24 h, replicate number 2): -0.46
Growth Rate (U2OS; 0 h, replicate number 1): -1
Growth Rate (U2OS; 6 h, replicate number 1): -0.82
Growth Rate (U2OS; 6 h, replicate number 2): -0.23
Growth Rate (U2OS; 12 h, replicate number 1): -0.26
Growth Rate (U2OS; 12 h, replicate number 2): 0.01
Growth Rate (U2OS; 18 h, replicate number 1): -0.15
Growth Rate (U2OS; 18 h, replicate number 2): 0.03
Growth Rate (U2OS; 24 h, replicate number 1): -0.17
Growth Rate (U2OS; 24 h, replicate number 2): -0.03

O=C(Nc1cccc(C(F)(F)F)c1)c1cc(Cl)ccc1O
Growth Rate (HEK-293T; 6 h, replicate number 1): -0.8
Growth Rate (HEK-293T; 6 h, replicate number 2): -0.84
Growth Rate (HEK-293T; 12 h, replicate number 1): -0.85
Growth Rate (HEK-293T; 12 h, replicate number 2): -0.56
Growth Rate (HEK-293T; 18 h, replicate number 1): -0.77
Growth Rate (HEK-293T; 18 h, replicate number 2): -0.41
Growth Rate (HEK-293T; 24 h, replicate number 1): -0.67
Growth Rate (HEK-293T; 24 h, replicate number 2): -0.3
Growth Rate (Fibroblast; 6 h, replicate number 1): -0.98
Growth Rate (Fibroblast; 6 h, replicate number 2): -0.88
Growth Rate (Fibroblast; 12 h, replicate number 2): -0.65
Growth Rate (Fibroblast; 18 h, replicate number 1): 0.8
Growth Rate (Fibroblast; 18 h, replicate number 2): -0.55
Growth Rate (Fibroblast; 24 h, replicate number 1): 0.08
Growth Rate (Fibroblast; 24 h, replicate number 2): -0.46
Growth Rate (U2OS; 0 h, replicate number 1): -0.07
Growth Rate (U2OS; 6 h, replicate number 1): 0.96
Growth Rate (U2OS; 6 h, replicate number 2): 0.71
Growth Rate (U2OS; 12 h, replicate number 1): 0.63
Growth Rate (U2OS; 12 h, replicate number 2): 0.59
Growth Rate (U2OS; 18 h, replicate number 1): 0.4
Growth Rate (U2OS; 18 h, replicate number 2): 0.41
Growth Rate (U2OS; 24 h, replicate number 1): 0.28
Growth Rate (U2OS; 24 h, replicate number 2): 0.27

N[C@@H]1CCCC[C@H]1Oc1ccc2ncc(-c3cc4ccccc4o3)n2n1
Growth Rate (HEK-293T; 6 h, replicate number 1): -0.98
Growth Rate (HEK-293T; 6 h, replicate number 2): -0.97
Growth Rate (HEK-293T; 12 h, replicate number 1): -0.86
Growth Rate (HEK-293T; 12 h, replicate number 2): -0.77
Growth Rate (HEK-293T; 18 h, replicate number 1): -0.66
Growth Rate (HEK-293T; 18 h, replicate number 2): -0.63
Growth Rate (HEK-293T; 24 h, replicate number 1): -0.53
Growth Rate (HEK-293T; 24 h, replicate number 2): -0.43
Growth Rate (Fibroblast; 0 h, replicate number 1): -1
Growth Rate (Fibroblast; 6 h, replicate number 1): -0.12
Growth Rate (Fibroblast; 6 h, replicate number 2): -0.77
Growth Rate (Fibroblast; 12 h, replicate number 1): -0.57
Growth Rate (Fibroblast; 12 h, replicate number 2): -0.62
Growth Rate (Fibroblast; 18 h, replicate number 1): -0.67
Growth Rate (Fibroblast; 18 h, replicate number 2): -0.65
Growth Rate (Fibroblast; 24 h, replicate number 1): -0.62
Growth Rate (Fibroblast; 24 h, replicate number 2): -0.55
Growth Rate (U2OS; 0 h, replicate number 1): -0.99
Growth Rate (U2OS; 6 h, replicate number 1): -0.96
Growth Rate (U2OS; 6 h, replicate number 2): -0.91
Growth Rate (U2OS; 12 h, replicate number 1): -0.95
Growth Rate (U2OS; 12 h, replicate number 2): -0.8
Growth Rate (U2OS; 18 h, replicate number 1): -0.88
Growth Rate (U2OS; 18 h, replicate number 2): -0.72
Growth Rate (U2OS; 24 h, replicate number 1): -0.75
Growth Rate (U2OS; 24 h, replicate number 2): -0.63

Cc1ccc(S(=O)(=O)O)cc1.Cn1cc(Nc2nccc(N3CC4CCC(C3)N4C(=O)[C@@H]3CC3(F)F)n2)cn1
Growth Rate (HEK-293T; 0 h, replicate number 1): 0.13
Growth Rate (HEK-293T; 6 h, replicate number 2): 0.93
Growth Rate (HEK-293T; 18 h, replicate number 2): 0.98
Growth Rate (Fibroblast; 0 h, replicate number 1): 0.69
Growth Rate (Fibroblast; 0 h, replicate number 2): 0.55
Growth Rate (Fibroblast; 6 h, replicate number 1): 0.01
Growth Rate (Fibroblast; 6 h, replicate number 2): 0.12
Growth Rate (Fibroblast; 12 h, replicate number 1): 0.8
Growth Rate (Fibroblast; 12 h, replicate number 2): 0.69
Growth Rate (Fibroblast; 18 h, replicate number 1): 0.4
Growth Rate (Fibroblast; 18 h, replicate number 2): 0.88
Growth Rate (Fibroblast; 24 h, replicate number 1): 1
Growth Rate (U2OS; 0 h, replicate number 2): 0.58
Growth Rate (U2OS; 6 h, replicate number 1): 0.03
Growth Rate (U2OS; 6 h, replicate number 2): 0.95
Growth Rate (U2OS; 12 h, replicate number 1): -0.28
Growth Rate (U2OS; 12 h, replicate number 2): 0.96
Growth Rate (U2OS; 18 h, replicate number 2): 0.84
Growth Rate (U2OS; 24 h, replicate number 2): 0.8

Clc1cccc(-n2nnnc2NCc2ccccc2Oc2ccccn2)c1Cl
Growth Rate (HEK-293T; 0 h, replicate number 1): 0.73
Growth Rate (HEK-293T; 0 h, replicate number 2): 0.49
Growth Rate (Fibroblast; 0 h, replicate number 1): 0.89
Growth Rate (Fibroblast; 0 h, replicate number 2): 0.26
Growth Rate (Fibroblast; 6 h, replicate number 2): -0.47
Growth Rate (Fibroblast; 12 h, replicate number 2): 0.89
Growth Rate (Fibroblast; 18 h, replicate number 1): 0.74
Growth Rate (Fibroblast; 24 h, replicate number 1): 0
Growth Rate (U2OS; 0 h, replicate number 1): -0.04
Growth Rate (U2OS; 0 h, replicate number 2): 0.95
Growth Rate (U2OS; 6 h, replicate number 2): 0.99
Growth Rate (U2OS; 12 h, replicate number 1): 0.9
Growth Rate (U2OS; 18 h, replicate number 2): 0.96

Source: ChEMBL document CHEMBL5303304, “EUbOPEN Chemogenomics Library - IncuCyte” (2023)
